Data set [1] concerns A549 cells. Kind of data set: Clonogenic survival, DMF. The class given is cell-based, human. The settings on record: A549, 50 μM DMA 2 h before radiation. As to the method:
(§1) Exponentially growing U87, HEK293, MRC5 and A549 cells were treated with 50 μM DMA for 2 h and irradiated with 0, 1, 2, 5, 8 and 10 Gy of radiation dose as indicated at RT and trypsinized immediately at 37° C. Cells were seeded into 60 mm dishes in triplicate at various cell densities aiming approximately 100 colonies/dish. Percentage radioprotection was calculated by following formula % of Protection in radiation treated cells=(SFDMA+radiaion)−(SFRadiaion)/SFControl×100 Where SF is survival fraction in respective conditions. Dose modification factor (DMF) was calculated as ratio of 50% survival in DMA+radiation to 50% survival in radiation only.

Data set [2] has as its system HEK293 cells. The experiment in a line: Clonogenic survival, DMF. It counts as cell-based, human. The settings on record: HEK293, 50 μM DMA 2 h before radiation. The procedure: as §1
Data set [3] deals with MRC5 cells. The experiment in a line: Clonogenic survival, DMF. The class given is cell-based, human. The settings on record: MRC5, 50 μM DMA 2 h before radiation. As to the method:
as §1

In data set [4] the test system is U87 cells. The experiment in a line: Clonogenic survival, DMF. Particulars: U87, 50 μM DMA 2 h before radiation. The class given is cell-based, human. As to the method: as §1
Data set [5] relates to melanoma bearing Balb/c mice. The experiment in a line: Melanoma tumor bearing mice, tumor volume and survival after TBI. It counts as in vivo, mouse. As to the method:
(§2) EAT and B16F10 melanoma cell line were harvested and 10×10^6 and 0.8×10^6 cells respectively were injected subcutaneously in the Balb/c mice (n=24) on the right thigh. When tumors reached 0.5 cm^3 in volume, animals were randomized and divided into 4 different groups. The first test group was treated with 50 mg/kg, i.v. DMA, second test group subjected to 8 Gy TBI. Third group received 50 mg/kg, i.v. DMA and 8 Gy TBI both. The control group was similarly administered normal saline (0.1 ml, i.v.). On every alternate days, tumor-bearing thigh of each animal was shaved, and the longest (1) and shortest diameter (b) of the tumors along with height (h) were measured with the help of a vernier calliper. Tumor weight of each animal was calculated using the formula l*b*h/2.

The subject of data set [6] is nude mice. The experiment in a line: Nude mice survival after 7Gy TBI. The class given is in vivo, mouse. The settings on record: 50 mg/kg i.p. 2 h prior to 7Gy TBI. As to the method: Mice were divided into 4 groups containing 5 animals each. Group 1, sham control; Group 2, DMA treated (50 mg/kg, i.p.); Group 3, TBI 7Gy; Group 4, treated with DMA (50 mg/kg i.p.) prior to TBI 7Gy.

Data set [7] relates to Akt/NFκB pathway in Balb/c mice intestine tissue. Kind of data set: Immunoblot analysis and Akt kinase assay in intestine tissue. It counts as in vivo, mouse. The procedure:
HEK293, MRC5 and A549 cells were treated as indicated earlier. The cell pellet was resuspended in RIPA buffer and allowed to swell on ice for 30 min. Balb/c intestine tissue and tumor tissues were homogenized in RIPA buffer. Protein concentration was determined using Bradford's Assay (Bangalore Genei). Western blot was performed using standard protocols with primary antibodies against Akt, pAkt (Ser-473), […], mTOR, p70, Bad, PTEN, IKKα/β, p IKKα/β, p53, Bcl2, GAPDH, and NFκB (p65) (Cell Signalling) and horseradish peroxidase-conjugated mouse or rabbit secondary antibody (Abcam). Signals were detected using enhanced chemiluminescence (ECL system, Pierce) on X-ray film.
Akt kinase activity was determined using Akt Kinase Assay Kit (Nonradioactive) (Cell Signaling Technology, Cat. #9840) following the manufacturer's instructions.
A general note: In western blotting, separated proteins are transferred to a membrane and probed.

Data set [8] deals with Akt/NFκB pathway in melanoma tissue of mice. Kind of data set: Immunoblot analysis in tumor tissue. It counts as in vivo, mouse. As to the method: as §2
HEK293, MRC5 and A549 cells were treated as indicated earlier. The cell pellet was resuspended in RIPA buffer and allowed to swell on ice for 30 min. Balb/c intestine tissue and tumor tissues were homogenized in RIPA buffer. Protein concentration was determined using Bradford's Assay (Bangalore Genei). […] Signals were detected using enhanced chemiluminescence (ECL system, Pierce) on X-ray film.

For data set [9], the system named is HEK293 cells. Kind of data set: Cell-cycle analysis. It counts as cell-based, human. The procedure:
The cell cycle analysis of Akt depleted HEK293 cells were done at 0, 1, 3, 6, 12, 18 and 24 h, washed twice with ice-cold PBS, and fixed in 70% ethanol. Cell pellets were stored at 4° C. for 24 h, and stained with 0.5 mL of propidium iodide (0.1% in 0.6% Triton X-100 in PBS) and 0.5 mL of RNase (2 mg/mL) for 30 min in dark. Samples were then analysed on a FACS Calibur flow-cytometer (Becton Dickinson).

In data set [10] the test system is HEK293 cells. Kind of data set: Annexin-V staining, control siRNA and Akt siRNA transfected cells. It counts as cell-based, human. The settings on record: for Apoptotic events: Akt knocked down HEK293, DMA+Radiation; for Total early and late apoptotic cells: control siRNA HEK293, DMA+Radiation. The procedure: HEK 293 cells were transfected with Akt siRNA and control-siRNA (Santa Cruz Biotechnology Inc.) according to the manufacturer's instructions. Semi-quantitative RT-PCR was performed with primers specific for Akt and ACTB in control siRNA and Akt siRNA treated HEK cells for analysing knockdown of Akt […] gene expression.
HEK293 cells (2×10^5 cells/plate) were transfected with control siRNA and siRNA-Akt, and DMA, Radiation and DMA+Radiation treatments were given as described earlier and samples were collected at 3, 6, 12, 18 and 24 h (data not shown for 12 and 18 h). Samples were prepared according to the manufacturer's instructions (BD Pharmingen™ Annexin V: FITC Apoptosis Detection Kit I, Catalog Number 556547, USA) and the samples were subjected to flow cytometry analysis (Becton Dickinson).

For data set [11], the system named is NFκB Δp65− A549 and scramble A549 cells. Kind of data set: Clonogenicity assay of NFκB p65 knockdown A549 cells. The class given is cell-based, human. As to the method:
0.8-1×10^6 A549 cells were seeded with media containing 8 μg/ml polybrene. Cells were infected with 0.5 ml lentivirus in fresh media containing polybrene and were incubated for next 24 h. Desired cells were selected against puromycin. NFκB p65 protein knockdown was checked by western blot after 3 days of selection media.
Exponentially growing scrambled and NFκB p65 knockdown A549 cells were treated with 50 μM DMA for 2 h and irradiated with 0, 2, 4, 6 and 8 Gy of radiation dose for clonogenic survival assay. % Radioprotection was calculated by following formula % of Protection in radiation treated cells=(SF(Δp65−)+DMA/SF(Δp65−))×100 where SF is survival fraction in respective conditions.

For data set [12] the following is noted: in vivo (earlier work, Nimesh et al., 2015); cited from earlier work.

Several values for one entry are separate records, joined by “and”; a condition that tells them apart may be missing. Equal entries are not always repeated.

Results on one compound are retold here after patent publication US10016515B2, “DMA, a bis-benzimidazole, confers radioprotection to the intestine via Akt/NFκB dual pathway activation” (Jawaharlal Nehru University, priority 2016, dated 2018).

In the case of `COc1ccc(-c2nc3cc(-c4nc5cc(N6CCN(C)CC6)ccc5[nH]4)ccc3[nH]2)cc1OC` [DMA, 5-(4-methylpiperazin-1-yl)-2-[2′-(3,4-dimethoxyphenyl)-5′-benzimidazolyl]benzimidazole], the “DMF at 50% survival” value in data set [1] is 1.38; in data set [2], 1.44; in data set [3] it was 1.1; in data set [4], 1.067 and 1.07. Further, the “Survival of melanoma bearing Balb/c mice” value in [5] (50 mg/kg i.v. 2 h before 8Gy TBI) amounted to 50%. Also, in data set [5] (50 mg/kg, 2 h before irradiation, melanoma model), the “Radioprotection of tumor tissues” value is listed as “less radioprotection”. Besides, the “30-days survival of nude mice” value in data set [6] is reported as 40%. For the same compound, the “Phosphorylated Akt, GSK3β and IKKα/β” value in [7] (DMA treated intestine tissue prior to irradiation) is “higher level”. Besides, in data set [7] (DMA+Radiation vs control and radiation, intestine), the “Kinase activity of Akt” value is “higher kinase activity”. The “NFκB p65 expression” value in data set [7] (DMA+Radiation, intestine) is recorded as “higher expression”. Further, the “Phosphorylated Akt level” value in data set [8] (DMA pretreated to irradiation of TBM vs other conditions) was “lower”. In data set [8] (tumor tissues of TBM, 50 mg/kg i.v. + 8Gy TBI), the “Akt/NFκB signaling in response to radiation” value is reported as “does not modulate”. The G2 check point entry in [9] (HEK293, DMA 50 μM alone) is on record as “no significant G2 check point”. In [9] (HEK293, DMA+Radiation (5Gy), 18 h), the G2-M progression result is reported as “significant G2-M delay”. The results for the Apoptotic events in data set [10] (3 h), in data set [10] (6 h) and in data set [10] (24 h) were 23%, 21% and 22%, respectively. Besides, the “Total early and late apoptotic cells” value was found to be 12% in data set [10] (3 h), 9% in data set [10] (6 h) and 7% in data set [10] (24 h). In addition, the DMF was determined as 1.02 in data set [11] (NFκB Δp65− A549, 50 μM DMA 2 h) and 1.28 in [11] (scrambled sequence transfected A549, 50 μM DMA 2 h). In addition, in [12], the “Maximum tolerated dose (MTD), no toxicity in vivo” value was 2000 mg/kg.
